From patent publication US9676715B2, “Bis-indolic derivatives, a process for preparing the same and their uses as a drug” (UNIVERSITE JOSEPH FOURIER, priority 2011, dated 2017)
Converted amounts (≈) assume the structure as drawn.

How the values were obtained:
[1] = system: S. aureus ATCC 25923; test: Time-kill curves; format: cell-based, Staphylococcus aureus
Experimental: FIG. 2 presents the time-kill curve of compound 3f (tested at MIC×4, 8 or 16) obtained with S. aureus ATCC 25923.
The method described by Motyl et al. [M. Motyl, K. Dorso, J. Barrett, R. Giacobbe, Basic Microbiological Techniques Used in Antibacterial Drug Discovery. Current Protocols in Pharmacology. UNIT 13A.3. January, 2006] was used.
Killing curves corresponded to the measure of the kinetic of bactericidal activity of indolic compounds over time (time-kill curves) or after 18 h incubation of cultures according to different drug concentrations (concentration-killing curves). Sterile tubes were inoculated with: 1/sterile Mueller Hinton broth, to serve as negative control; 2/a drug-free bacterial inoculum, to serve as a growth control; 3/a bacterial inoculum (10^5 CFU/mL of final concentration) with various concentrations of the tested indolic compound. The tubes were incubated at 37° C. with agitation (50 rpm). Bacterial inocula are determined in each tube using the CFU count method at the beginning of the experiments, and then after 18 h for concentration-killing curves, or after 1 h, 2 h, 4 h, 8 h and 18 h for time-kill curves. A significant bactericidal effect corresponds to reduction of the initial bacterial load of 3 logs or more at any time of incubation.

[2] = system: Staphylococcus cohnii (CHUG-Scoh2); test: MIC, Staphylococcus panel (9.2); format: cell-based; settings: S. cohnii CHUG-Scoh2, 4% DMSO, 18 h
Experimental: (§1) The microdilution method recommended by the Clinical and Laboratory Standard Institute [M07-A9, Vol. 32, N° 2] was used. The activity of bis-indolic compounds 3f and 4 was tested against 35 Staphylococcus bacterial strains corresponding to 12 different species,
(§2) Bacterial inocula were prepared in Mueller Hinton broth (MH2, BioMérieux, Marcy L'Etoile, France). They were dispensed in 96 well microtiter plates (5×10^5 CFU/ml of final inoculum, 192 μL per well). Indolic compounds diluted in pure DMSO (8 μL per well, concentrated 25 times) were added to the wells as to obtain two-fold serial concentrations (0.5-32 mg/L of final concentrations). The final concentration of DMSO was 4% in each well.
(§3) To avoid cross-contaminations in microtiter plates, one row was left blank between each strain tested. Microplates were incubated for 18 h at 37° C. in ambient air. Then MICs were read visually and, in case of visual reading difficulties, confirmed using a spectrophotometer at a wavelength of 630 nm (BioTek® EL808 Absorbance Microplate Reader). MICs corresponded to the minimum bis-indolic compound concentration that allowed complete visual growth inhibition of bacteria. Drug-free cultures served as growth controls.
(§4) Coagulase-negative Staphylococcus strains included three reference strains purchased from CRBIP: a methicillin-susceptible S. epidermidis strain (ATCC 12228), a methicillin-resistant S. epidermidis strain (ATCC 49461), and a methicillin-susceptible S. sciuri strain (ATCC 29061). We also used clinical strains belonging to the following coagulase-negative Staphylococcus species: S. auricularis (two strains), S. warneri (five strains), S. capitis (five strains), S. haemolyticus (four strains), S. hominis (seven strains), S. cohnii (two strains), and S. saprophyticus, S. caprae and S. simulans (one strain each). Identification of the clinical strains was obtained using VITEK® 2 System (Biomérieux). The specified strain numbers correspond to an internal number of the bacterial strain collection of our laboratory.

[3] = system: Staphylococcus warneri (CHUG-Swar5); test: MIC, Staphylococcus panel (9.2); format: cell-based; settings: S. warneri CHUG-Swar5, 4% DMSO, 18 h
Experimental: as §1, §2, §3, §4

[4] = system: Staphylococcus capitis (CHUG-Scap4); test: MIC, Staphylococcus panel (9.2); format: cell-based; settings: S. capitis CHUG-Scap4, 4% DMSO, 18 h
Experimental: as §1, §2, §3, §4

[5] = system: Staphylococcus saprophyticus (CHUG-Ssap2); test: MIC, Staphylococcus panel (9.2); format: cell-based; settings: S. saprophyticus CHUG-Ssap2, 4% DMSO, 18 h
Experimental: as §1, §2, §3, §4

[6] = system: Staphylococcus capitis (CHUG-Scap6); test: MIC, Staphylococcus panel (9.2); format: cell-based; settings: S. capitis CHUG-Scap6, 4% DMSO, 18 h
Experimental: as §1, §2, §3, §4

[7] = system: Staphylococcus capitis (CHUG-Scap5); test: MIC, Staphylococcus panel (9.2); format: cell-based; settings: S. capitis CHUG-Scap5, 4% DMSO, 18 h
Experimental: as §1, §2, §3, §4

[8] = system: Staphylococcus haemolyticus (CHUG-Shae5); test: MIC, Staphylococcus panel (9.2); format: cell-based; settings: S. haemolyticus CHUG-Shae5, 4% DMSO, 18 h
Experimental: as §1, §2, §3, §4

[9] = system: Staphylococcus aureus ATCC 106414 (VISA); test: MIC, Staphylococcus panel (9.2); format: cell-based; settings: 18 h
Experimental: as §1, §2, §3
Four Staphylococcus aureus strains were used. Two reference strains were provided by the French reference center for Staphylococcus spp. (Lyon, France), including one methicillin-susceptible (MSSA 476) and one methicillin-resistant (MRSA 252) S. aureus strains. The two remaining S. aureus strains were purchased from the CRBIP (Centre de Ressources Biologiques de l'Institut Pasteur): a vancomycin-intermediate strain (ATCC 106414) and a S. aureus strain (SA-1199B) resistant to fluoroquinolones due to overexpression of the NorA multidrug efflux pump.

[10] = system: Staphylococcus aureus K2378 (overexpresses the efflux pump NorA from a multicopy plasmid); test: Efflux pump inhibition assay with sub-inhibitory ciprofloxacin; format: cell-based; settings: S. aureus K2378; in the presence of ciprofloxacin 0.5 mg/L
Experimental: The efflux pump inhibition potential of the bis-indolic derivatives was tested using two steps.
The following experimental protocol was used: indolic derivatives (initially solubilised in DMSO at 10 mg/mL) were dispensed in a 96-wells microplate by two fold serial dilutions in Muller-Hinton medium (MH, Bio Rad) using a Biomek 2000 (Beckman) handling robot. 100 μL of the bacterial inoculum (an overnight culture at 37° C. in 5 mL MH diluted 100-fold) was then added in each well. The total volume was 200 μL in each well and the final bacteria concentration 10^6 CFU/mL (CFU: colony forming unit). The highest final indolic derivative concentration was 128 mg/L. Growth was assayed with a microplate reader by monitoring absorption at 620 nm after 1, 2, 5, 7 and 24 h incubation at 37° C. In addition, the plates were read visually after 24 hours incubation. Cultures containing 5 μL DMSO were used as growth controls. In addition, two controls containing a sub-inhibitory or a inhibitory antibiotic concentration for the tested strain were performed. The antibiotics used were ampicillin (0.5 and 32 μg/mL) for E. coli, kanamycin (0.5 and 16 μg/mL) for S. aureus ATCC 25923, ciprofloxacin (4 and 64 mg/L) for S. aureus 1199B, ciprofloxacin (0.5 and 2 mg/L) for S. aureus K2378. All experiments were performed in duplicate.
Efflux pump inhibition assays were then performed against resistant Staphylococcus aureus strains SA 1199B and SA K2378 for bis-indolic derivatives. […] The minimal inhibitory concentration (MIC) of the bis-indolic compound allowing a complete inhibition of the bacterial growth in the presence of ciprofloxacin was determined.

`CC(C)(C)OC(=O)NCC(NC(=O)c1c[nH]c2ccc(Br)cc12)c1c[nH]c2ccc(Br)cc12` (centres unmarked) [Compound 3f, tert-Butyl(2-(5-bromo-1H-indol-3-yl)-2-(5-bromo-1H-indolyl-3-carboxamido)ethyl)carbamate] was tested, and the “bacterial regrowth (time-kill curve)” value ([1]; 4×MIC, incubation prolonged to 18 h) was “progressive bacterial regrowth”, the “bactericidal activity (time-kill curve)” value ([1]; after 8 h incubation, 4×, 8× and 16× the MIC) was “significant bactericidal activity” and the MIC [2] was 16 µg/mL (≈ 27.8 µM). For the same molecule, the MIC [3] was 8 µg/mL (≈ 13.9 µM), the MIC [4] was 4 µg/mL (≈ 6.94 µM) and the MIC [5] was 8 µg/mL (≈ 13.9 µM). It also gave an MIC [6] of 8 µg/mL (≈ 13.9 µM), an MIC [7] of 16 µg/mL (≈ 27.8 µM) and an MIC [8] of 16 µg/mL (≈ 27.8 µM).

Molecule `CC(NC(=O)c1c[nH]c2ccc(Br)cc12)c1c[nH]c2ccc(Br)cc12` (centres unmarked) [Compound 4, 5-Bromo-N-(1-(5-bromo-1H-indol-3-yl)ethyl)-1H-indole-3-carboxamide] has an MIC [9] of 1 µg/mL (≈ 2.17 µM).

For `Cn1cc(C(=O)NC(CNC(=O)OC(C)(C)C)c2c[nH]c3ccc(Br)cc23)c2cc(Br)ccc21` (centres unmarked) [Compound 7, tert-Butyl (2-(5-bromo-1-methyl-1H-indole-3-carboxamido)-2-(5-bromo-1H-indol-3-yl)ethyl) carbamate], the “MIC, mg/L (Ciprofloxacin concentration, mg/L)” value [10] was 0.125 (0.5) mg/L.
